The values that follow come from article PMC10652874, “Investigation into the mechanism of action of the antimicrobial peptide epilancin 15X” (Frontiers in Microbiology, 2023).

The assay relates to B. subtilis ATCC 6633. Briefly: Fluorescence and bright field (Airyscan) microscopy. In kind it is cell-based, Bacillus subtilis. On the procedure: Standard microscope slides coated with poly-D-lysine (R&D Systems, 34–392 − 000101) overnight were washed with water and sterilized in ethanol. Overnight bacterial culture was centrifuged at 4,500 ×g and the pellet was resuspended gently three times in fresh PBS to remove the media background. Then 20 μL of cell culture in PBS and 180 μL of PBS were loaded on each slide and incubated at room temperature for 30 min. Next, 1 mL of PBS was used to wash the slides at least five times to remove unadhered cells. A final concentration of 200 nM epilancin 15X-TAMRA in 200 μL of PBS was applied to each slide and incubated at room temperature for 30 min. PBS was used to wash the slides at least five times to wash away unbound Epilancin 15X. A final concentration of 10% formaldehyde (Thermo Scientific, PI28906) and 2.5% glutaraldehyde (Fisher Chemical, O2957–1) in PBS was applied to each slide and incubated for 30 min. Three times 1 mL of PBS was applied to wash away excess fixing solution. A drop of ProLong Glass Antifade Mountant (Invitrogen, P36982) was applied to each slide, covered with a glass coverslip (Ibidi, NC0601315), and dried overnight protected from light. All micrographs were captured using a Zeiss LSM 880 Airyscan microscope (Carl R. Woese Institute for Genomic Biology, UIUC). […]

Turning to Epilancin 15X, the “aggregation phenotype of cells (brightfield)” value was “Aggregation and chaining of cells was observed”.
